In PubChem BioAssay (NCI):
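Where inhibition never reached the appropriate level, the endpoint shown equals the highest concentration tested. Otherwise, values were interpolated linearly from a five-concentration, 48-hour dose response in 96-well plates. GI50 marks 50% less growth. Definition used: TGI = concentration required for complete inhibition of growth.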

Key:
Test in all cases: DTP human tumour cell line panel, 48 h
SK-OV-3 ovarian = tested on: SK-OV-3 ovarian
SN12C renal = tested on: SN12C renal
UO-31 renal = tested on: UO-31 renal
NCI/ADR-RES ovarian = tested on: NCI/ADR-RES ovarian
OVCAR-5 ovarian = tested on: OVCAR-5 ovarian
RXF 393 renal = tested on: RXF 393 renal
MDA-MB-435 = tested on: MDA-MB-435
HCT-116 colon = tested on: HCT-116 colon
COLO 205 colon = tested on: COLO 205 colon
MALME-3M melanoma = tested on: MALME-3M melanoma

SMILES	TGI (SK-OV-3 ovarian)	TGI (SN12C renal)	TGI (UO-31 renal)	TGI (NCI/ADR-RES ovarian)	TGI (OVCAR-5 ovarian)	TGI (RXF 393 renal)	TGI (MDA-MB-435)	TGI (HCT-116 colon)	TGI (COLO 205 colon)	TGI (MALME-3M melanoma)	GI50 (SK-OV-3 ovarian)	GI50 (UO-31 renal)	GI50 (OVCAR-5 ovarian)	GI50 (RXF 393 renal)	GI50 (MDA-MB-435)	GI50 (MALME-3M melanoma)	GI50 (NCI/ADR-RES ovarian)	GI50 (HCT-116 colon)	GI50 (SN12C renal)
Oc1ccc2ccccc2c1N=Nc1ccc(N=Nc2ccccc2)cc1	> 100 µM	> 100 µM	> 100 µM	> 100 µM	> 100 µM	> 100 µM	> 100 µM	> 100 µM	> 100 µM	> 100 µM	–	–	–	–	–	–	–	–	–
C#CCCCCC#CC1CCCC1C1=CC(=O)c2ccccc21 (stereo unspecified)	28.7 µM	19.4 µM	21.3 µM	–	23.7 µM	18.4 µM	–	2.91 µM	28.6 µM	20.1 µM	–	–	–	–	–	–	–	–	–
CCCNCC(O)/C=C/[Si](C)(C)C (stereo unspecified) (tested in a mixture with another compound)	> 100 µM	> 100 µM	> 100 µM	–	> 100 µM	> 100 µM	–	> 100 µM	> 100 µM	> 100 µM	–	–	–	–	–	–	–	–	–
CCCCCCc1ccc(O)cc1O	> 100 µM	> 100 µM	86.7 µM	> 100 µM	> 100 µM	> 100 µM	–	> 100 µM	> 100 µM	> 100 µM	–	–	–	–	–	–	–	–	–
Cc1ccccc1N=Nc1ccc(N=Nc2c(O)ccc3cc(S(=O)(=O)O)cc(S(=O)(=O)O)c23)c(C)c1	> 100 µM	–	> 100 µM	> 100 µM	> 100 µM	> 100 µM	> 100 µM	> 100 µM	> 100 µM	> 100 µM	–	–	–	–	–	–	–	–	–
NC(=O)c1nnc2cc(F)c(F)cc2c1N	82.4 µM	> 100 µM	> 100 µM	> 100 µM	> 100 µM	–	> 100 µM	> 100 µM	> 100 µM	> 100 µM	–	–	–	–	–	–	–	–	–
C/C=C1/CN2CC[C@@H]3c4ccccc4N4[C@H](C(=O)OC)[C@H]1C[C@H]2[C@]34/C=C/C1=COC[C@@H]2[C@H]1C[C@H]1c3c(c4ccccc4n3C)C[C@@H]2N1C	8.06 µM	9.17 µM	7.98 µM	6.69 µM	7.99 µM	7.9 µM	7.18 µM	7.61 µM	6.62 µM	8.5 µM	–	–	–	–	–	–	–	–	–
CC(=O)O[C@H]1CC[C@]2(C)[C@H]3C(=O)C=C4[C@@H]5C[C@](C)(C(=O)N6CCCNCC6)CC[C@]5(C)CC[C@@]4(C)[C@]3(C)CC[C@H]2C1(C)C	3.48 µM	–	2.82 µM	–	2.96 µM	3.24 µM	2.97 µM	–	–	3.47 µM	1.87 µM	1.4 µM	1.6 µM	1.66 µM	1.59 µM	1.8 µM	–	–	–
O=[N+]([O-])/C=C/c1cccc(F)c1	28.2 µM	38.9 µM	5.87 µM	35.2 µM	–	4.32 µM	13.2 µM	8.86 µM	8.02 µM	32.5 µM	–	–	–	–	–	–	–	–	–
O=C(N/N=C/c1cc(Br)cc(Br)c1[O-])c1ccccc1O.O=C(N/N=C/c1cc(Br)cc(Br)c1[O-])c1ccccc1O.[Cl-].[Fe+3]	7.22 µM	–	20.7 µM	–	7.61 µM	6.39 µM	–	10.2 µM	–	–	–	–	–	–	–	–	–	–	–
C[n+]1ccccc1/C=C/c1ccc2c(c1)OCO2	> 10 µM	> 10 µM	–	> 10 µM	> 10 µM	> 10 µM	> 10 µM	> 10 µM	> 10 µM	> 10 µM	–	–	–	–	–	–	–	–	–
Cc1c2ccccc2nc2[nH]c3ccncc3c12	> 100 µM	85.1 µM	> 100 µM	72.4 µM	95 µM	–	> 100 µM	–	> 100 µM	66.6 µM	–	–	–	–	–	–	–	–	–
N=c1nc(N)nc(N)n1-c1ccc(S(N)(=O)=O)cc1	–	> 100 µM	> 100 µM	> 100 µM	> 100 µM	> 100 µM	> 100 µM	> 100 µM	–	> 100 µM	–	–	–	–	–	–	–	–	–
CCOC(=O)C1=C(C)N2CCCOC2(C)C(C(=O)OC)C1c1cccc([N+](=O)[O-])c1 (stereo unspecified)	–	–	> 100 µM	–	–	> 100 µM	–	> 100 µM	> 100 µM	–	–	–	–	–	–	–	–	–	–
CN(C)CCNc1ccc2nnn3c4ccc(Cl)cc4c(=O)c1c23	35.1 µM	21.8 µM	9.41 µM	15.9 µM	13.3 µM	13.1 µM	18.8 µM	14.6 µM	10.5 µM	17 µM	–	–	–	–	–	–	–	–	–
COc1cc2c(cc1O)CCN[C@@]21CS[C@H]2c3c(OC(C)=O)c(C)c4c(c3C(COC1=O)N1C2C2c3c(cc(C)c(OC)c3O)CC([C@@H]1O)N2C)OCO4 (stereo partly specified)	–	4.41e-06 µM	< 1e-06 µM	–	–	–	0.00604 µM	> 0.525 µM	–	–	0.00246 µM	< 1e-06 µM	–	–	0.00219 µM	–	0.0112 µM	0.00305 µM	–
COc1cc2c(cc1OC)C(C1(O)CCCCC1)NCC2 (stereo unspecified)	> 100 µM	> 100 µM	> 100 µM	–	> 100 µM	> 100 µM	–	> 100 µM	> 100 µM	> 100 µM	–	–	–	–	–	–	–	–	–
N=C(N)SC1c2ccccc2-c2cc([N+](=O)[O-])ccc21 (stereo unspecified)	18.9 µM	26.6 µM	20.3 µM	16 µM	26.7 µM	10.3 µM	4.26 µM	16.3 µM	9.77 µM	16.9 µM	–	–	–	–	–	–	–	–	–
Cc1ccc(NCCN(C)CC(C)O)c2c(=O)c3ccc(Cl)cc3sc12 (stereo unspecified)	> 100 µM	> 100 µM	–	> 100 µM	> 100 µM	–	–	–	–	3.54 µM	3.19 µM	–	3 µM	–	–	1.78 µM	4.68 µM	–	4.42 µM
Cc1nnc2sc(-c3ccc(N)cc3)nn12	> 100 µM	> 100 µM	> 100 µM	> 100 µM	> 100 µM	> 100 µM	> 100 µM	> 100 µM	> 100 µM	> 100 µM	–	–	–	–	–	–	–	–	–
Nc1nc(Cl)cc(NCCCCO)n1	> 100 µM	> 100 µM	> 100 µM	–	> 100 µM	> 100 µM	–	> 100 µM	> 100 µM	> 100 µM	–	–	–	–	–	–	–	–	–
O=S(=O)(O)c1cc(O)c2c(O)c(N=Nc3ccc(/C=C/c4ccc(N=Nc5c(S(=O)(=O)O)cc6cc(S(=O)(=O)O)cc(O)c6c5O)cc4S(=O)(=O)O)c(S(=O)(=O)O)c3)c(S(=O)(=O)O)cc2c1	> 100 µM	> 100 µM	> 100 µM	–	> 100 µM	> 100 µM	–	> 100 µM	> 100 µM	> 100 µM	–	–	–	–	–	–	–	–	–
